Measurements published in ChEMBL document CHEMBL3425505, “Selected hybrid natural products as tubulin modulators” (Eur J Med Chem, 2015).
pEC50, pIC50: −log10 of the molar value. In brackets after ≈: the same amount, converted by molar mass.

How the values were obtained:
Homo sapiens [1] = species: Homo sapiens; experiment: Toxicity in metastatic breast cancer patient assessed as neuropathy rate; type: organism-based; conditions: in vivo
Homo sapiens [2] = species: Homo sapiens; experiment: Toxicity in metastatic breast cancer patient assessed as incidence of peripheral neuropathy; type: organism-based; conditions: in vivo
Homo sapiens [3] = species: Homo sapiens; experiment: Toxicity in metastatic breast cancer patient assessed as incidence of neuropathy; type: organism-based; conditions: in vivo
A2780 = experiment: Cytotoxicity against human A2780 cells; type: functional, cell-based
CCRF-CEM = experiment: Growth inhibition of human CCRF-CEM cells; type: functional
SR = experiment: Growth inhibition of human SR cells; type: functional
MCF7 = experiment: Cytotoxicity against human MCF7 cells; type: functional, cell-based
[4] = Cytotoxicity against human H460 cells; type: functional, cell-based; conditions: NCI-H460
B16 = experiment: Cytotoxicity against mouse B16 cells; type: functional, cell-based

C=C1C[C@@H]2CC[C@@]34C[C@H]5O[C@H]6[C@@H](O3)[C@H]3O[C@H](CC[C@@H]3O[C@H]6[C@H]5O4)CC(=O)C[C@@H]3[C@@H](OC)[C@@H](C[C@H](O)CN)O[C@H]3C[C@H]3O[C@@H](CC[C@@H]1O2)C[C@@H](C)C3=C [ERIBULIN]
Activity (Homo sapiens [1]): 35% | Activity (Homo sapiens [2]): 31.4% | Activity (Homo sapiens [3]): 33.3%

C/C(=C\c1csc(C)n1)[C@@H]1C[C@@H]2O[C@]2(C)CCC[C@@H]2CCC[C@@H](C(=O)C(C)(C)[C@@H](O)CC(=O)O1)[C@H]2O
pEC50 (A2780): 5.07

CC1=C(c2ccc(C)cn2)CC2/C=C(/C)CCC[C@H](C)[C@H](O)[C@@H](C)C(=O)C(C)(C)[C@@H](O)CC(=O)O[C@H]12 (single isomer, unassigned)
GI50 (CCRF-CEM): 2.7 nM | GI50 (SR): 2.9 nM

C/C(=C\c1csc(C)n1)[C@@H]1C[C@@H]2O[C@@H]2CCC[C@@H]2CCC[C@@H](C(=O)C(C)(C)[C@@H](O)CC(=O)O1)[C@H]2O
pEC50 (A2780): 5.07

CO[C@H]1/C=C(/C)CCC[C@H](C)[C@H](O)[C@@H](C)C(=O)C(C)(C)[C@@H](O)CC(=O)O[C@@H]1/C(C)=C/c1csc(C)n1
pIC50 (MCF7): 8.43 | pIC50 [4]: 8.31

C=C1C[C@@H]2CC[C@@]34O[C@@H]5[C@@H]6O[C@](O)([C@H](O3)[C@@H]6O[C@H]3CC[C@H](CC(=O)O[C@@H]6[C@@H](C)[C@@H]7O[C@@H]8C[C@]9(C[C@@H]%10O[C@]%11(C[C@H](C)[C@@H]%12O[C@H](CC(=O)O)[C@H](O)C[C@@H]%12O%11)C[C@H](C)[C@@H]%10O9)O[C@@H]8C[C@@H]7O[C@H]6C[C@H]6O[C@@H](CC[C@@H]1O2)C[C@@H](C)C6=C)O[C@H]53)[C@H]4O
IC50 (B16): 5 ng/mL (≈ 4.44 nM)

C/C(=C\c1csc(C)n1)[C@@H]1C[C@@H]2O[C@]2(C)CCC[C@H](C)[C@H](O)[C@@H](C)C(=O)C(C)(C)[C@@H](O)CC(=O)N1 [IXABEPILONE]
Activity (Homo sapiens [1]): 63% | Activity (Homo sapiens [2]): 44% | Activity (Homo sapiens [3]): 48%
